Results as given in patent US7144879B2, “Substituted metal-phthalocyanines, their preparation and the use thereof” (L. Molteni & C. Dei Fratelli, priority 2000, dated 2006).

Key:
Format in all cases: cell-based
erythrocytes = experiment: Haemolytic properties, dark and light treatment; conditions: for % Haemolysis (Light treatment) 30 J/cm^2 (50 mW/cm^2 × 10 min): light 30 J/cm^2 (50 mW/cm^2 × 10 min)
3T3 cells = experiment: Survival of 3T3 cells (model of mammalian cells) after photodynamic treatment; conditions: red light 650-750 nm, 50 mW/cm^2, PBS +5% DMSO, 5 min pre-incubation
Protocol: (§1) The irradiation is carried out with red light (650-750 nm), 50 mW/cm^2.

[1] = tested on: Staphylococcus aureus (ATCC 6538P, MRSA; Gram-positive); experiment: Photoinactivation of S. aureus (MRSA), survival after photodynamic treatment; conditions: red light 650-750 nm, 50 mW/cm^2, PBS +5% DMSO, 5 min pre-incubation
Description: (§2) The compounds synthesized have been assayed for their antifungal and antibacterial (Gram-positive e Gram-negative) activity. For the experiments the following micro-organisms were used: Candida albicans (ATCC10231; yeast), Staphylococcus aureus (ATCC 6538P, MRSA; Gram-positive), Escherichia coli (04; Gram-negative). All the micro-organisms were used in the experiments in a stationary state of growth. An example of experimental protocol used to assess the photoinactivation of micro-organisms is described as follows.
(§3) Cells in a stationary state of growth have been washed in physiological buffered saline solution (PBS) and diluted in order to obtain a cell suspension in the range 10^6÷10^9 cells/ml in PBS or appropriate medium.
(§4) Cell suspensions have then been treated with scalar aliquots of the photosensitising agent to be tested in the range 30÷0.01 μM, eventually as a photosensitizer conjugate. […] In order to determine the percentage of cell population after photoinactivation for each photosensitizer concentration, serially diluted samples resulting from the irradiation have been plated on Sabouraud Dextrose Agar (C. Albicans), on Tryptic Soy Agar (S. aureus), or on other suitable culture media and the data were compared with dark controls.
as §1

[2] = tested on: Escherichia coli (04; Gram-negative); experiment: Photoinactivation of E. coli, survival after photodynamic treatment; conditions: red light 650-750 nm, 50 mW/cm^2, PBS +5% DMSO, 5 min pre-incubation
Description: as §2, §3, §4, §1

[3] = tested on: Candida albicans (ATCC10231; yeast); experiment: Photoinactivation of C. albicans, survival after photodynamic treatment; conditions: 1 μM, red light 650-750 nm, 50 mW/cm^2, PBS +5% DMSO, 10 min pre-incubation
Description: as §2, §3, §4, §1

| Molecule | % Haemolysis (Dark treatment) (erythrocytes; concentration 0.5 μM) [%] | % Haemolysis (Light treatment) 30 J/cm^2 (50 mW/cm^2 × 10 min) (erythrocytes; concentration 0.5 μM) [%] | % Haemolysis (Dark treatment) (erythrocytes; concentration 1 μM) [%] | % Haemolysis (Light treatment) 30 J/cm^2 (50 mW/cm^2 × 10 min) (erythrocytes; concentration 1 μM) [%] | % Haemolysis (Dark treatment) (erythrocytes; concentration 5 μM) [%] | % Haemolysis (Light treatment) 30 J/cm^2 (50 mW/cm^2 × 10 min) (erythrocytes; concentration 5 μM) [%] | Survival (%) (3T3 cells; 1 μM, irradiation 1 min) | Survival (%) (3T3 cells; 1 μM, irradiation 5 min) | Survival (%) (3T3 cells; 10 μM, irradiation 1 min) | Survival (%) (3T3 cells; 10 μM, irradiation 5 min) | Survival (%) ([1]; 1 μM, irradiation 1 min) | Survival (%) ([1]; 1 μM, irradiation 5 min) | Survival (%) ([1]; 10 μM, irradiation 1 min) | Survival (%) ([1]; 10 μM, irradiation 5 min) | Survival (%) ([2]; 1 μM, irradiation 1 min) | Survival (%) ([2]; 1 μM, irradiation 5 min) | Survival (%) ([2]; 10 μM, irradiation 1 min) | Survival (%) ([2]; 10 μM, irradiation 5 min) | Survival (%) ([3]; irradiation 1 min) | Survival (%) ([3]; irradiation 5 min) |
| --- | --- | --- | --- | --- | --- | --- | --- | --- | --- | --- | --- | --- | --- | --- | --- | --- | --- | --- | --- | --- |
| CN1CCC(Oc2ccc3c4[n]5c(c3c2)=NC2=NC(=Nc3c6ccccc6c([n]3[Zn]5)N=C3N=C(N=4)c4ccccc43)c3ccccc32)CC1 [Compound 4] | 4.7 | 0.9 | 1.5 | 1.2 | 1.5 | 1.5 | – | – | – | – | – | – | – | – | – | – | – | – | – | – |
| 2[1,3-bis-(trimethylammonium)2-propyloxy]zinc(II) phtalocyanine diiodide [Compound 18] | – | – | – | – | – | – | 100 | 97 | 100 | 94 | 0.0002 | 0.0001 | 0.0001 | 0.0001 | 100 | 100 | 100 | 2.34 | 0.0001 | 0.0001 |
